Laboratory results taken from patent US8802597B2, “Herbicidal pyrimidines” (E I du Pont de Nemours and Company, priority 2003, dated 2014).
Like-named read-outs stand apart in the source and are kept apart here.

Tests used:
Type in all cases: in vivo
[1] = tested on: blackgrass (Alopecurus myosuroides); assay: Test B postemergence; conditions: Alopecurus myosuroides, post-emergence, scale 0 to 100 (0 no effect, 100 complete control), read-out: Blackgrass plant response rating
How it was run: (§1)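 Greenhouse whole-plant test; surfactant-containing non-phytotoxic solvent formulation; pre- and postemergence applications made simultaneously; post plants 2–18 cm, 1- to 4-leaf; visual scoring at 13–15 days on 0–100 scale relative to controls.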

wild oat (Avena fatua) = assay: Test B postemergence; conditions: Avena fatua, post-emergence, scale 0 to 100 (0 no effect, 100 complete control), read-out: Oat, Wild plant response rating
How it was run: as §1

rice (Oryza sativa) = assay: Test B flooded paddy test; conditions: Oryza sativa, Flood, scale 0 to 100, read-out: Plant response rating, Rice
How it was run: (§2)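 Visual injury scoring (0 = no effect, 100 = complete control) versus controls made 13 to 15 days after treatment in the greenhouse. Test species were grown in flooded paddy to the 2-leaf stage: rice, barnyardgrass, umbrella sedge, duck salad.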

[2] = tested on: umbrella sedge (Cyperus difformis); assay: Test B flooded paddy test; conditions: Cyperus difformis, Flood, scale 0 to 100, read-out: Plant response rating, Sedge, Umbrella
How it was run: as §2

[3] = tested on: barnyardgrass (Echinochloa crus-galli); assay: Test B flooded paddy test; conditions: Echinochloa crus-galli, Flood, scale 0 to 100, read-out: Plant response rating, Barnyardgrass
How it was run: as §2

[4] = tested on: duck salad (Heteranthera limosa); assay: Test B flooded paddy test; conditions: Heteranthera limosa, Flood, scale 0 to 100, read-out: Plant response rating, Ducksalad
How it was run: as §2

[5] = tested on: wheat (Triticum aestivum); assay: Test B pre/postemergence; conditions: Triticum aestivum, scale 0 to 100 (0 no effect, 100 complete control); for plant injury at 62 g/ha: 62 g ai/ha; for plant injury at 125 g/ha: 125 g ai/ha
How it was run: as §1

[6] = tested on: velvetleaf (Abutilon theophrasti); assay: Test B pre/postemergence; conditions: Abutilon theophrasti; for pest or weed control at 62 g/ha: 62 g ai/ha; for pest or weed control at 125 g/ha: 125 g ai/ha
How it was run: as §1

[7] = tested on: giant foxtail (Setaria faberii); assay: Test B pre/postemergence; conditions: Setaria faberi; for pest or weed control at 125 g/ha: 125 g ai/ha; for pest or weed control at 62 g/ha: 62 g ai/ha
How it was run: as §1

[8] = tested on: crabgrass (Digitaria sanguinalis); assay: Test B pre/postemergence; conditions: Digitaria sanguinalis; for pest or weed control at 62 g/ha: 62 g ai/ha; for pest or weed control at 125 g/ha: 125 g ai/ha
How it was run: as §1

[9] = tested on: lambsquarters (Chenopodium album); assay: Test B pre/postemergence; conditions: Chenopodium album, post-emergence, Postemergence, scale 0 to 100 (0 no effect, 100 complete control), read-out: Lambsquarters plant response rating
How it was run: as §1

[10] = tested on: barnyardgrass (Echinochloa crus-galli); assay: Test B pre/postemergence; conditions: Echinochloa crus-galli, post-emergence, Postemergence, scale 0 to 100 (0 no effect, 100 complete control), read-out: Barnyardgrass plant response rating
How it was run: as §1

corn (Zea mays) = assay: Test B pre/postemergence; conditions: Zea mays
How it was run: as §1

[11] = tested on: cocklebur (Xanthium strumarium); assay: Test B pre/postemergence; conditions: Xanthium strumarium; for pest or weed control at 62 g/ha: 62 g ai/ha; for pest or weed control at 125 g/ha: 125 g ai/ha
How it was run: as §1

[12] = tested on: Surinam grass (Brachiaria decumbens); assay: Test B pre/postemergence; conditions: Urochloa decumbens; for pest or weed control at 125 g/ha: 125 g ai/ha; for pest or weed control at 62 g/ha: 62 g ai/ha
How it was run: as §1

[13] = tested on: pigweed (Amaranthus retroflexus); assay: Test B pre/postemergence; conditions: Amaranthus retroflexus, post-emergence, Postemergence, scale 0 to 100 (0 no effect, 100 complete control), read-out: Pigweed plant response rating
How it was run: as §1

[14] = tested on: morningglory (Ipomoea coccinea); assay: Test B pre/postemergence; conditions: Ipomoea; for pest or weed control at 62 g/ha: 62 g ai/ha; for pest or weed control at 125 g/ha: 125 g ai/ha
How it was run: as §1

[15] = post-emergence, Postemergence, read-out: Wheat plant response rating
[16] = pre-emergence, Preemergence, read-out: Plant response rating, Wheat
[17] = post-emergence, Postemergence, scale 0 to 100 (0 no effect, 100 complete control), read-out: Velvetleaf plant response rating
[18] = post-emergence, Postemergence, scale 0 to 100 (0 no effect, 100 complete control), read-out: Foxtail, Giant plant response rating
[19] = post-emergence, Postemergence, scale 0 to 100 (0 no effect, 100 complete control), read-out: Crabgrass plant response rating
[20] = post-emergence, Postemergence, scale 0 to 100 (0 no effect, 100 complete control), read-out: Cocklebur plant response rating
[21] = post-emergence, Postemergence, scale 0 to 100 (0 no effect, 100 complete control), read-out: Surinam Grass plant response rating
[22] = post-emergence, Postemergence, scale 0 to 100 (0 no effect, 100 complete control), read-out: Morningglory plant response rating

Compound CCOC(=O)c1nc(-c2ccc(Br)cc2)nc(N)c1Cl [Compound 94, ethyl 6-amino-2-(4-bromophenyl)-5-chloro-4-pyrimidinecarboxylate] has a pest or weed control at 62 g/ha ([1]; 62 g ai/ha) of 40%, a pest or weed control at 125 g/ha ([1]; 125 g ai/ha) of 60% and a pest or weed control at 62 g/ha (wild oat (Avena fatua); 62 g ai/ha) of 30%. For the same compound, the pest or weed control at 125 g/ha (wild oat (Avena fatua); 125 g ai/ha) was 30%, the plant injury at 125 g/ha (rice (Oryza sativa); 125 g ai/ha) was 0% and the plant injury at 500 g/ha (rice (Oryza sativa); 500 g ai/ha) was 0%. It also gave a pest or weed control at 125 g/ha ([2]; 125 g ai/ha) of 90%, a pest or weed control at 500 g/ha ([2]; 500 g ai/ha) of 90% and a pest or weed control at 125 g/ha ([3]; 125 g ai/ha) of 0%. It also gave a pest or weed control at 500 g/ha ([3]; 500 g ai/ha) of 0%, a pest or weed control at 125 g/ha ([4]; 125 g ai/ha) of 100% and a pest or weed control at 500 g/ha ([4]; 500 g ai/ha) of 100%. It also gave a plant injury at 62 g/ha [5, 15] of 40%, a plant injury at 125 g/ha [5, 15] of 60% and a plant injury at 62 g/ha [5, 16] of 30%. For the same compound, the plant injury at 125 g/ha [5, 16] was 60%, the pest or weed control at 62 g/ha [6, 17] was 90% and the pest or weed control at 125 g/ha [6, 17] was 100%. The pest or weed control at 62 g/ha ([6]; pre-emergence, Preemergence, scale 0 to 100, 0 no effect, 100 complete control, read-out: Plant response rating, Velvetleaf) was 40%, the pest or weed control at 125 g/ha ([6]; pre-emergence, Preemergence, scale 0 to 100 (0 no effect, 100 complete control), read-out: Plant response rating, Velvetleaf) was 70% and the pest or weed control at 125 g/ha [7, 18] was 60%. It also gave a pest or weed control at 62 g/ha [7, 18] of 50%, a pest or weed control at 125 g/ha ([7]; pre-emergence, Preemergence, scale 0 to 100 (0 no effect, 100 complete control), read-out: Plant response rating, Foxtail, Giant) of 20% and a pest or weed control at 62 g/ha ([7]; pre-emergence, Preemergence, scale 0 to 100, 0 no effect, 100 complete control, read-out: Plant response rating, Foxtail, Giant) of 0%. It also gave a pest or weed control at 62 g/ha [8, 19] of 70%, a pest or weed control at 125 g/ha [8, 19] of 80% and a pest or weed control at 62 g/ha ([8]; pre-emergence, Preemergence, scale 0 to 100, 0 no effect, 100 complete control, read-out: Plant response rating, Crabgrass) of 40%. It also gave a pest or weed control at 125 g/ha ([8]; pre-emergence, Preemergence, scale 0 to 100 (0 no effect, 100 complete control), read-out: Plant response rating, Crabgrass) of 70%, a pest or weed control at 62 g/ha ([9]; 62 g ai/ha) of 90% and a pest or weed control at 125 g/ha ([9]; 125 g ai/ha) of 90%. It also gave a pest or weed control at 62 g/ha ([10]; 62 g ai/ha) of 80%, a pest or weed control at 125 g/ha ([10]; 125 g ai/ha) of 90% and a plant injury at 62 g/ha (corn (Zea mays); post-emergence, Postemergence, 62 g ai/ha, scale 0 to 100 (0 no effect, 100 complete control), read-out: Corn plant response rating) of 70%. For the same compound, the plant injury at 125 g/ha (corn (Zea mays); post-emergence, Postemergence, 125 g ai/ha, scale 0 to 100 (0 no effect, 100 complete control), read-out: Corn plant response rating) was 90%, the Corn plant response rating (crop injury, 0 = no effect, 100 = complete kill) at 62 g/ha (corn (Zea mays); pre-emergence, Preemergence, 62 g ai/ha, scale 0 to 100, 0 no effect, 100 complete control) was 0% and the Corn plant response rating (crop injury, 0 = no effect, 100 = complete kill) at 125 g/ha (corn (Zea mays); pre-emergence, Preemergence, 125 g ai/ha, scale 0 to 100 (0 no effect, 100 complete control)) was 0%. For the same compound, the pest or weed control at 62 g/ha [11, 20] was 100%, the pest or weed control at 125 g/ha [11, 20] was 100% and the pest or weed control at 62 g/ha ([11]; pre-emergence, Preemergence, scale 0 to 100, 0 no effect, 100 complete control, read-out: Plant response rating, Cocklebur) was 30%. It also gave a pest or weed control at 125 g/ha ([11]; pre-emergence, Preemergence, scale 0 to 100 (0 no effect, 100 complete control), read-out: Plant response rating, Cocklebur) of 50%, a pest or weed control at 125 g/ha [12, 21] of 80% and a pest or weed control at 62 g/ha [12, 21] of 80%. The pest or weed control at 125 g/ha ([12]; pre-emergence, Preemergence, scale 0 to 100 (0 no effect, 100 complete control), read-out: Plant response rating, Surinam Grass) was 30%, the pest or weed control at 62 g/ha ([12]; pre-emergence, Preemergence, scale 0 to 100, 0 no effect, 100 complete control, read-out: Plant response rating, Surinam Grass) was 10% and the pest or weed control at 62 g/ha ([13]; 62 g ai/ha) was 90%. For the same compound, the pest or weed control at 125 g/ha ([13]; 125 g ai/ha) was 90%, the pest or weed control at 62 g/ha [14, 22] was 80% and the pest or weed control at 125 g/ha [14, 22] was 90%. It also gave a pest or weed control at 62 g/ha ([14]; pre-emergence, Preemergence, scale 0 to 100, 0 no effect, 100 complete control, read-out: Plant response rating, Morningglory) of 0% and a pest or weed control at 125 g/ha ([14]; pre-emergence, Preemergence, scale 0 to 100 (0 no effect, 100 complete control), read-out: Plant response rating, Morningglory) of 0%.
